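96-well plates; 48 h exposure; 5 concentrations. Endpoints by linear interpolation between flanking doses. Not reached: highest tested concentration assigned. GI50: concentration for 50% inhibition of growth.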 The source made the active and inactive calls. Cut-off read from the data, not from the text of the source: active = GI50 up to about 1.1 µM and inactive = higher.
Legend:
Test in all cases: NCI-60 cell line screen, 48 h
TK-10 = test system: TK-10
HT-29 = test system: HT-29
NCI-H460 = test system: NCI-H460
SW-620 = test system: SW-620
A549 = test system: A549
SF-295 = test system: SF-295
OVCAR-8 = test system: OVCAR-8
MOLT-4 = test system: MOLT-4
HOP-62 = test system: HOP-62
Hs-578T = test system: Hs-578T
SK-MEL-2 = test system: SK-MEL-2
MDA-N = test system: MDA-N
786-0 = test system: 786-0
K562 = test system: K562
A498 = test system: A498
SK-MEL-28 = test system: SK-MEL-28
MCF7 = test system: MCF7
HOP-92 = test system: HOP-92
UACC-62 = test system: UACC-62
SN12C = test system: SN12C

| SMILES | GI50 (TK-10) | GI50 (HT-29) | GI50 (NCI-H460) | GI50 (SW-620) | GI50 (A549) | GI50 (SF-295) | GI50 (OVCAR-8) | GI50 (MOLT-4) | GI50 (HOP-62) | GI50 (Hs-578T) | GI50 (SK-MEL-2) | GI50 (MDA-N) | GI50 (786-0) | GI50 (K562) | GI50 (A498) | GI50 (SK-MEL-28) | GI50 (MCF7) | GI50 (HOP-92) | GI50 (UACC-62) | GI50 (SN12C) |
| --- | --- | --- | --- | --- | --- | --- | --- | --- | --- | --- | --- | --- | --- | --- | --- | --- | --- | --- | --- | --- |
| O=C1/C(=C/c2cccc([N+](=O)[O-])c2)N=C(c2ccccc2)N1c1nc2c(Cl)cc(Cl)cc2s1 | 45.2 µM (inactive) | 19.1 µM (inactive) | 27.5 µM (inactive) | 25.5 µM (inactive) | 21.1 µM (inactive) | 33.6 µM (inactive) | 22 µM (inactive) | 11.5 µM (inactive) | 19.7 µM (inactive) | 35.8 µM (inactive) | 21.4 µM (inactive) | 18.4 µM (inactive) | 31.4 µM (inactive) | 31.1 µM (inactive) | 18.7 µM (inactive) | 40.7 µM (inactive) | 23.9 µM (inactive) | 24.6 µM (inactive) | 29.2 µM (inactive) | 22.4 µM (inactive) |
| CC1=NN(C(=O)CSc2nc3ccc(I)cc3c(=O)n2Cc2ccccc2)C(=O)C1 | 47.6 µM (inactive) | 34.3 µM (inactive) | 31.8 µM (inactive) | 46.5 µM (inactive) | 34 µM (inactive) | 27.3 µM (inactive) | 48.8 µM (inactive) | 24.4 µM (inactive) | 39.6 µM (inactive) | 7.89 µM (inactive) | 17.2 µM (inactive) | 31.2 µM (inactive) | 36.9 µM (inactive) | 23.8 µM (inactive) | 22.4 µM (inactive) | 57.3 µM (inactive) | 22.8 µM (inactive) | 36.1 µM (inactive) | 26.4 µM (inactive) | 29.3 µM (inactive) |
| O=P1(Cc2ccccc2)c2ccccc2-c2ccccc21 | 5 µM (inactive) | 2.37 µM (inactive) | 4.04 µM (inactive) | 3.61 µM (inactive) | 8.81 µM (inactive) | 5.98 µM (inactive) | 4.4 µM (inactive) | 7.29 µM (inactive) | 6.47 µM (inactive) | 7.05 µM (inactive) | 2.18 µM (inactive) | 1.22 µM (inactive) | 7.94 µM (inactive) | 1.41 µM (inactive) | 7.85 µM (inactive) | 4.13 µM (inactive) | 3.08 µM (inactive) | 0.376 µM (active) | 1.96 µM (inactive) | 14.2 µM (inactive) |
| COc1ccc(/C=N/NS(=O)(=O)c2ccc(/C=C3\NC(=O)N(C)C3=O)cc2)cc1 | 49.3 µM (inactive) | > 100 µM (inactive) | 37.5 µM (inactive) | > 100 µM (inactive) | > 100 µM (inactive) | 55 µM (inactive) | 56.2 µM (inactive) | 63.5 µM (inactive) | 40.2 µM (inactive) | 30.3 µM (inactive) | > 100 µM (inactive) | > 100 µM (inactive) | > 100 µM (inactive) | > 100 µM (inactive) | 70.6 µM (inactive) | > 100 µM (inactive) | 40.9 µM (inactive) | 58.7 µM (inactive) | 98.9 µM (inactive) | > 100 µM (inactive) |

Source: ChEMBL document CHEMBL1201862, “PubChem BioAssay data set” (2004)
